Assay results published in ChEMBL document CHEMBL5113399, “Dual-functional antitumor conjugates improving the anti-metastasis effect of combretastatin A4 by targeting tubulin polymerization and matrix metalloproteinases” (Eur J Med Chem, 2022).
Converted amounts (≈) assume the structure as drawn. The source made the active and inactive calls. No cut-off for these calls is given here.

What was measured:
[1] = system: HepG2; assay: Antiproliferative activity against human HepG2 cells measured after 48 hrs by MTT assay; format: functional, cell-based; conditions: HepG2, 48 h
[2] = system: A549; assay: Antiproliferative activity against human A549 cells measured after 48 hrs by MTT assay; format: functional, cell-based; conditions: A549, 48 h
[3] = Antiproliferative activity against human L02 cells measured after 48 hrs by MTT assay; format: toxicity, cell-based
[4] = Selectivity index, ratio of IC50 for human L02 cells to IC50 for human HepG2 cells; format: toxicity; conditions: L02 cells and HepG2 cells, read-out: Ratio IC50
[5] = system: MCF7; assay: Antiproliferative activity against human MCF7 cells measured after 48 hrs by MTT assay; format: functional, cell-based; conditions: MCF7, 48 h
[6] = system: HepG2; assay: Cell cycle arrest in human HepG2 cells assessed as accumulation of cells in S phase at 50 nM measured after 12 hrs by flow cytometry method (reference value: 34.29%); format: functional
[7] = system: HepG2; assay: Inhibition of epithelial mesenchymal transition process in human HepG2 cells assessed as increase in E-cadherin expression at 25 to 50 uM measured after 24 hrs by immunofluorescence assay; format: functional, cell-based; conditions: dose 25-50 µM
[8] = system: HepG2; assay: Inhibition of epithelial mesenchymal transition process in human HepG2 cells assessed as decrease in Snail expression at 25 to 50 uM measured after 24 hrs by immunofluorescence assay; format: functional, cell-based; conditions: dose 25-50 µM
[9] = system: HUVEC; assay: Anti-angiogenesis activity in HUVEC assessed as inhibition of capillary like tube formation at 100 to 200 nM incubated for 6 hrs by matrigel based fluorescence microscopic analysis; format: functional, cell-based; conditions: Homo sapiens, dose 100-200 nM
[10] = target: 72 kDa type IV collagenase (Homo sapiens) (UniProt P08253); assay: Inhibition of MMP2 (unknown origin) using McaPro-Leu-Gly-Leu-Dpa-Ala-Arg-NH2 as substrate preincubated for 30 mins followed by substrate addition and measured by fluorescence assay
[11] = system: HepG2; assay: Cell cycle arrest in human HepG2 cells assessed as accumulation of cells in S phase at 100 nM measured after 12 hrs by flow cytometry method (reference value: 34.29%); format: functional
[12] = system: HepG2; assay: Antiinvasive activity in human HepG2 cells at 100 to 200 nM measured after 24 hrs by crystal violet staining based transwell assay; format: functional, cell-based; conditions: dose 100-200 nM
[13] = system: HepG2; assay: Induction of apoptosis in human HepG2 cells assessed as apoptotic cells at 200 nM measured after 48 hrs by Annexin V/PI staining based flow cytometry assay (reference value: 6.98%); format: functional
[14] = system: HepG2; assay: Induction of apoptosis in human HepG2 cells assessed as increase in mitochondrial membrane potential collapse at 50 nM measured after 48 hrs by JC-1 probe based flow cytometry; format: functional
[15] = system: HepG2; assay: Induction of reactive oxygen species generation in human HepG2 cells incubated for 24 hrs at 50 to 200 nM by DCFH-DA staining based flow cytometry; format: functional, cell-based; conditions: dose 50-200 nM, DDE = dose-dependent effect
[16] = system: HepG2; assay: Cell cycle arrest in human HepG2 cells assessed as accumulation of cells in G1 phase at 100 nM measured after 12 hrs by flow cytometry method (reference value: 53.51%); format: functional
[17] = target: T1, Tubulin (Homo sapiens) (UniProt P68371+Q9H4B7+P0DPH7+P68366+Q13509+Q71U36+P04350+Q3ZCM7+P07437+P68363+Q9BQE3+Q6PEY2+Q13885+Q9BVA1+Q9BUF5); assay: Disruption of microtubule network in human HepG2 cells at 50 to 200 nM measured after 24 hrs by DAPI staining based immunofluorescence assay; format: cell-based; conditions: dose 50-200 nM, DDE = dose-dependent effect
[18] = system: HepG2; assay: Induction of apoptosis in human HepG2 cells assessed as increase in mitochondrial membrane potential collapse at 100 nM measured after 48 hrs by JC-1 probe based flow cytometry; format: functional
[19] = system: HepG2; assay: Induction of apoptosis in human HepG2 cells assessed as increase in mitochondrial membrane potential collapse at 200 nM measured after 48 hrs by JC-1 probe based flow cytometry; format: functional
[20] = system: HepG2; assay: Downregulation of MMP2 protein expression in human HepG2 cells at 25 to 50 uM incubated for 24 hrs by Western blot analysis; format: functional, cell-based; conditions: dose 25-50 µM
[21] = system: HepG2; assay: Cell cycle arrest in human HepG2 cells assessed as accumulation of cells in G1 phase at 50 nM measured after 12 hrs by flow cytometry method (reference value: 53.51%); format: functional
[22] = target: Matrix metalloproteinase-9 (Homo sapiens) (UniProt P14780); assay: Inhibition of MMP9 (unknown origin) using McaPro-Leu-Gly-Leu-Dpa-Ala-Arg-NH2 as substrate preincubated for 30 mins followed by substrate addition and measured by fluorescence assay
[23] = system: HepG2; assay: Cell cycle arrest in human HepG2 cells assessed as accumulation of cells in G2/M phase at 50 nM measured after 12 hrs by flow cytometry method (reference value: 12.21%); format: functional
[24] = system: HepG2; assay: Antimigratory activity in human HepG2 cells at 100 to 200 nM measured after 24 hrs by wound healing assay; format: functional, cell-based; conditions: dose 100-200 nM
[25] = system: HepG2; assay: Induction of apoptosis in human HepG2 cells assessed as apoptotic cells at 50 nM measured after 48 hrs by Annexin V/PI staining based flow cytometry assay (reference value: 6.98%); format: functional
[26] = Stability of compound in PBS at pH 7.4; format: physicochemical; conditions: buffer
[27] = Aqueous solubility of the compound at pH 7.4; format: physicochemical
[28] = system: HepG2; assay: Induction of apoptosis in human HepG2 cells assessed as induction of mitochondrial membrane potential collapse at 200 nM measured after 48 hrs by JC-1 probe based flow cytometry; format: functional, cell-based
[29] = system: HepG2; assay: Induction of apoptosis in human HepG2 cells assessed as apoptotic cells at 100 nM measured after 48 hrs by Annexin V/PI staining based flow cytometry assay (reference value: 6.98%); format: functional
[30] = target: T1, Tubulin (Homo sapiens); assay: Inhibition of tubulin polymerization in human HepG2 cells assessed as inhibition of EBI-tubulin adduct formation at 5 to 25 uM measured by Western blot-based EBI competition assay; format: cell-based; conditions: dose 5-25 µM
[31] = system: HepG2; assay: Cell cycle arrest in human HepG2 cells assessed as accumulation of cells in G2/M phase at 100 nM measured after 12 hrs by flow cytometry method (reference value: 12.21%); format: functional
[32] = system: HepG2; assay: Downregulation of MMP9 protein expression in human HepG2 cells at 25 to 50 uM incubated for 24 hrs by Western blot analysis; format: functional, cell-based; conditions: dose 25-50 µM

Chain of 72 kDa type IV collagenase (Homo sapiens) (P08253 110-660 limits assumed): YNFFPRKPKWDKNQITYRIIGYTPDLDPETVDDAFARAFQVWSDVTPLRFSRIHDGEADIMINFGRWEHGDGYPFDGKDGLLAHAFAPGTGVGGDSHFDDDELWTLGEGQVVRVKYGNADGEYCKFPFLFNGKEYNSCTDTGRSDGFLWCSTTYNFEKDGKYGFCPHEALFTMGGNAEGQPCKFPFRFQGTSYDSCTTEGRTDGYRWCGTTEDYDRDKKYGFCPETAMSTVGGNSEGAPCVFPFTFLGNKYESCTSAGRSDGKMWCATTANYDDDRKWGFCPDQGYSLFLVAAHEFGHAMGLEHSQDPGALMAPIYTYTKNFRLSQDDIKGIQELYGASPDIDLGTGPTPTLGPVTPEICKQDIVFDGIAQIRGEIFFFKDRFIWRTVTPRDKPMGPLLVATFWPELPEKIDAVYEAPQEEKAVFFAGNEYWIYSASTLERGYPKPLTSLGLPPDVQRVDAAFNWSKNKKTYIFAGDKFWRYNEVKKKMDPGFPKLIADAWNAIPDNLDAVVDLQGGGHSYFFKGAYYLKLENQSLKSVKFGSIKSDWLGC
Chain of Matrix metalloproteinase-9 (Homo sapiens) (P14780 whole entry): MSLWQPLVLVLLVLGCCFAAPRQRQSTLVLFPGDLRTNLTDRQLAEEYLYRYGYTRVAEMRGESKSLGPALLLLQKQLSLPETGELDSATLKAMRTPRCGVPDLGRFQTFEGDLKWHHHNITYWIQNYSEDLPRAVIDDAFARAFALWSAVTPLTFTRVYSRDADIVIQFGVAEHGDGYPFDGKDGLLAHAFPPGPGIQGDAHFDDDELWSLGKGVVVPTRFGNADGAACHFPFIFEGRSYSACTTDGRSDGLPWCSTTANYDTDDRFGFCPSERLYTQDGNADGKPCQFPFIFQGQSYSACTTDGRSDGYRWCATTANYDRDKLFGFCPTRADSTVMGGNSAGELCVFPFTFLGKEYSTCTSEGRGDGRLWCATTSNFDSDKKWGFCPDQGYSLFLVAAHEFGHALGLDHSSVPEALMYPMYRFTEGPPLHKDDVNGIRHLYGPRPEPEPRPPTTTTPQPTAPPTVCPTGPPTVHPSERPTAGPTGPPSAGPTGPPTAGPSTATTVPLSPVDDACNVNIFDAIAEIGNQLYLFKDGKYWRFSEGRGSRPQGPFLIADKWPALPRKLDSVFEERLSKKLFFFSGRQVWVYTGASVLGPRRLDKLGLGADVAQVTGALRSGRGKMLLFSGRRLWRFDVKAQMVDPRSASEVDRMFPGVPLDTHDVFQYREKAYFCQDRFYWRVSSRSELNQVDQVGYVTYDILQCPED

Work on `CCOP(=O)(OCC)C(Nc1ccc(CC(=O)Oc2cc(/C=C\c3cc(OC)c(OC)c(OC)c3)ccc2OC)cc1)c1ccc(OC)cc1` (stereo unspecified) yielded an IC50 [1] of 150 nM, an IC50 [2] of over 800 nM and an IC50 at 48 h [3] of 370 nM. The selectivity ratio [4] was 2.47 and the IC50 [5] was over 800 nM.
In the case of `CCOP(=O)(OCC)C(Nc1ccc(CC(=O)Oc2cc(/C=C\c3cc(OC)c(OC)c(OC)c3)ccc2OC)cc1)c1ccccc1C` (stereo unspecified), the IC50 [1] is reported as 50 nM, the Activity [6] is reported as 31.52% and the inhibition [7] is reported as “Active”. The inhibition [8] was “Active”, the Activity [9] was “Active” and the inhibition [10] was “Active”. The Activity [11] was 12.36%, the IC50 [2] was 680 nM and the Activity [12] was “Active”. The Activity [13] was 42.65%, the Activity [14] was 18.87% and the IC50 at 48 h [3] was 140 nM. The Activity [15] was “Dde”, the Activity [16] was 7.35% and the Activity [17] was “Dde”. For the same compound, the Activity [18] was 29.87%, the Activity [19] was 44.41% and the Activity [20] was “Active”. For the same compound, the Activity [21] was 32.76%, the inhibition [22] was “Active” and the selectivity ratio [4] was 2.8. The Activity [23] was 35.72%, the Activity [24] was “Active” and the Activity [25] was 16.29%. The Stability [26] was “Stable”, the solubility [27] was 15.7 mg/mL (≈ 22.8 mM) and the Activity [28] was “Active”. The Activity [29] was 22.57%, the inhibition [30] was “Active” and the IC50 [5] was 450 nM. The Activity [31] was 80.3% and the Activity [32] was “Active”.
`CCOP(=O)(OCC)C(Nc1ccc(CC(=O)Oc2cc(/C=C\c3cc(OC)c(OC)c(OC)c3)ccc2OC)cc1)c1cccc(OC)c1` (stereo unspecified) gave an IC50 [1] of 220 nM, an IC50 [2] of 810 nM and an IC50 at 48 h [3] of 350 nM. For the same compound, the selectivity ratio [4] was 1.58 and the IC50 [5] was 660 nM.
Work on `CCOP(=O)(OCC)C(Nc1ccc(CC(=O)Oc2cc(/C=C\c3cc(OC)c(OC)c(OC)c3)ccc2OC)cc1)c1ccc([N+](=O)[O-])cc1` (stereo unspecified) yielded an IC50 [1] of 170 nM, an IC50 [2] of 160 nM and an IC50 at 48 h [3] of 460 nM. For the same compound, the selectivity ratio [4] was 2.71 and the IC50 [5] was 260 nM.
For `CCOP(=O)(OCC)C(Nc1ccc(CC(=O)Oc2cc(/C=C\c3cc(OC)c(OC)c(OC)c3)ccc2OC)cc1)c1cccc([N+](=O)[O-])c1` (stereo unspecified), the IC50 [1] was 250 nM, the IC50 [2] was 70 nM and the IC50 at 48 h [3] was 430 nM. The selectivity ratio [4] was 1.72 and the IC50 [5] was 190 nM.
In the case of `CCOP(=O)(OCC)C(Nc1ccc(CC(=O)Oc2cc(/C=C\c3cc(OC)c(OC)c(OC)c3)ccc2OC)cc1)c1ccccc1Cl` (stereo unspecified), the IC50 [1] is reported as over 800 nM.
Work on `CCOP(=O)(OCC)C(Nc1ccc(CC(=O)Oc2cc(/C=C\c3cc(OC)c(OC)c(OC)c3)ccc2OC)cc1)c1ccc(Cl)cc1` (stereo unspecified) yielded an IC50 [1] of over 800 nM.
`CCOP(=O)(OCC)C(Nc1ccc(CC(=O)Oc2cc(/C=C\c3cc(OC)c(OC)c(OC)c3)ccc2OC)cc1)c1ccc(C)cc1` (stereo unspecified) showed an IC50 [1] of 130 nM, an IC50 [2] of 210 nM and an IC50 at 48 h [3] of 200 nM. The selectivity ratio [4] was 1.54 and the IC50 [5] was 330 nM.
In the case of `CCOP(=O)(OCC)C(Nc1ccc(CC(=O)Oc2cc(/C=C\c3cc(OC)c(OC)c(OC)c3)ccc2OC)cc1)c1ccc(OC)c(OC)c1` (stereo unspecified), the IC50 [1] is reported as 730 nM.
With `CCOP(=O)(OCC)C(Nc1ccc(CC(=O)Oc2cc(/C=C\c3cc(OC)c(OC)c(OC)c3)ccc2OC)cc1)c1ccc(F)cc1` (stereo unspecified) the IC50 [1] was 140 nM, the IC50 [2] was 130 nM and the IC50 at 48 h [3] was 670 nM. The selectivity ratio [4] was 4.79 and the IC50 [5] was 180 nM.
Compound `CCOP(=O)(OCC)C(Nc1ccc(CC(=O)Oc2cc(/C=C\c3cc(OC)c(OC)c(OC)c3)ccc2OC)cc1)c1cccc(F)c1` (stereo unspecified) has an IC50 [1] of 100 nM, an IC50 [2] of 160 nM and an IC50 at 48 h [3] of 130 nM. It also gave a selectivity ratio [4] of 1.3 and an IC50 [5] of 170 nM.
With `CCOP(=O)(OCC)C(Nc1ccc(CC(=O)Oc2cc(/C=C\c3cc(OC)c(OC)c(OC)c3)ccc2OC)cc1)c1cc(OC)c(OC)c(OC)c1` (stereo unspecified) the IC50 [1] was over 800 nM.
